# ChEMBL document CHEMBL5465560, “Selectivity Literature for EUbOPEN Chemogenomic Library” (2024)
# Assays:
# [1] = target: T1, Ephrin type-A receptor 1 (Homo sapiens) (UniProt P21709); experiment: Selectivity interaction (KinomeScan (DiscoverX)) EUB0001049a EPHA1; settings: at 1 µM
# T1 sequence (whole entry): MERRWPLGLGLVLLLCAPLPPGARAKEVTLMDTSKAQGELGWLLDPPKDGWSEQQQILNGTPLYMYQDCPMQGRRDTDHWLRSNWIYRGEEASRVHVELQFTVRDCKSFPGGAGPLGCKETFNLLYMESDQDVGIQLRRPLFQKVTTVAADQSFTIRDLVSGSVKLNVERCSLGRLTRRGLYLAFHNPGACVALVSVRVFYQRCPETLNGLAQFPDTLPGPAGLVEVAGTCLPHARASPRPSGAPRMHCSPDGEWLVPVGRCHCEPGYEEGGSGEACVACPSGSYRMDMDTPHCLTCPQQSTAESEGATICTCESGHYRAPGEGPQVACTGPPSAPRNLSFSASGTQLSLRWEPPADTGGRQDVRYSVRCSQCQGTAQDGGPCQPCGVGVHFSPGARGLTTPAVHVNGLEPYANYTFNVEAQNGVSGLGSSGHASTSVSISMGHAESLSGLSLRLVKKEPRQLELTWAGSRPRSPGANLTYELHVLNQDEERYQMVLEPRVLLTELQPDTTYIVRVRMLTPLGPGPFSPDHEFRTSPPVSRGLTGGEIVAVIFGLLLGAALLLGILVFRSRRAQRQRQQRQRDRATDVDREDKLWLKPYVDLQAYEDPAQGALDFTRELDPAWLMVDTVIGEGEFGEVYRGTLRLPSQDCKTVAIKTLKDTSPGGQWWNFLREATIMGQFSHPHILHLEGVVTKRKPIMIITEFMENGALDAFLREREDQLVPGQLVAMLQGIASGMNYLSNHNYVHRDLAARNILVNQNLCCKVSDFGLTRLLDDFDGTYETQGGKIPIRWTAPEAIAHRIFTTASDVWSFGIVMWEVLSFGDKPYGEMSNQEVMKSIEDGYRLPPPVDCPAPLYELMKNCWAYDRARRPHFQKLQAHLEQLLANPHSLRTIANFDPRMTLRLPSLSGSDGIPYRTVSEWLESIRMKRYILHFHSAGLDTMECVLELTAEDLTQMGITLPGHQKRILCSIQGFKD
# [2] = target: MAP/microtubule affinity-regulating kinase 3 (Homo sapiens) (UniProt P27448); experiment: Selectivity interaction (KinomeScan (DiscoverX)) EUB0001049a MARK3; settings: at 1 µM
# [3] = target: Cyclin-dependent kinase-like 1 (Homo sapiens) (UniProt Q00532); experiment: Selectivity interaction (KinomeScan (DiscoverX)) EUB0000666a CDKL1; settings: at 10 µM
# [4] = target: Protein-tyrosine kinase 6 (Homo sapiens, UniProt Q13882); settings: at 10 µM
# [5] = target: Serine/threonine-protein kinase MRCK alpha (Homo sapiens) (UniProt Q5VT25); experiment: Selectivity interaction (Kinase panel (DSF assay)) EUB0001559a CDC42BPA
# [6] = target: MAP/microtubule affinity-regulating kinase 3 (Homo sapiens) (UniProt P27448); experiment: Selectivity interaction (ActivX KiNativ screen (kinase selectivity in THP-1 cell lysates)) EUB0000639a MARK3; type: subcellular; settings: lysate, at 0.01 µM
# [7] = target: Calcium/calmodulin-dependent protein kinase type II subunit delta (Homo sapiens) (UniProt Q13557); experiment: Selectivity interaction (Kinase panel (Invitrogen)) EUB0000639a CAMK2D; settings: at 200 nM
# [8] = target: Cyclin-dependent kinase 18 (Homo sapiens) (UniProt Q07002); experiment: Selectivity interaction (KinomeScan (DiscoverX)) EUB0000092b CDK18; settings: at 10 µM
# [9] = target: Histone-lysine N-methyltransferase SUV39H2 (Homo sapiens) (UniProt Q9H5I1); experiment: Selectivity interaction (Methyltransferase screen (Scintillation proximity assays)) EUB0000255b SUV39H2
# [10] = target: Phosphatidylinositol 4-phosphate 5-kinase type-1 alpha (Homo sapiens) (UniProt Q99755); settings: at 10 µM
# [11] = target: Mitogen-activated protein kinase kinase kinase kinase 1 (Homo sapiens) (UniProt Q92918); experiment: Selectivity interaction (ActivX KiNativ screen (ex vivo kinase selectivity in human PBMCs)) EUB0001619a MAP4K1; type: cell-based; settings: PBMC, at 1 µM
# [12] = target: Serine/threonine-protein kinase 38-like (Homo sapiens) (UniProt Q9Y2H1); experiment: Selectivity interaction (ActivX KiNativ screen (ex vivo kinase selectivity in human PBMCs)) EUB0001619a STK38L; type: cell-based; settings: PBMC, at 1 µM
# [13] = target: Serine/threonine-protein kinase SBK1 (Homo sapiens) (UniProt Q52WX2); experiment: Selectivity interaction (KinomeScan (DiscoverX)) EUB0000695a SBK1; settings: at 100 nM
# [14] = target: Ribosomal protein S6 kinase alpha-1 (Homo sapiens, UniProt Q15418); experiment: Selectivity interaction (KinomeScan (DiscoverX)) EUB0000607a RPS6KA1; settings: at 10 µM
# [15] = target: Tyrosine-protein kinase Yes (Homo sapiens) (UniProt P07947); experiment: Selectivity interaction (Kinase panel (Z-LYTE Assay)) EUB0001632a YES1; settings: at 10 µM
# [16] = target: Tyrosine-protein kinase ABL2 (Homo sapiens, UniProt P42684); experiment: Selectivity interaction (Kinase panel (Z-LYTE Assay)) EUB0001632a ABL2; settings: at 10 µM
# Histone-lysine N-methyltransferase SUV39H2 (Homo sapiens), sequence (Q9H5I1 whole entry): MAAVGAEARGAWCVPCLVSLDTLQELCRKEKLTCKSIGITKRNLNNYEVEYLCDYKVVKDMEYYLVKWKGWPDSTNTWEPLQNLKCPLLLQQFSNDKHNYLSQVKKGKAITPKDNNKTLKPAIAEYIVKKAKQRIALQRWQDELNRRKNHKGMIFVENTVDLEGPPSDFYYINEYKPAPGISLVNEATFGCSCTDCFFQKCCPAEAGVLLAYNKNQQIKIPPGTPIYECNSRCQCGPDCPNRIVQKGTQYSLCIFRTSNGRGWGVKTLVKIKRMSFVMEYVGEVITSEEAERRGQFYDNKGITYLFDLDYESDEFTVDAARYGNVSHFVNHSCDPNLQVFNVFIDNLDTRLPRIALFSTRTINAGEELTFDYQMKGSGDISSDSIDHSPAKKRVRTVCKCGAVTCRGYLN
# MAP/microtubule affinity-regulating kinase 3 (Homo sapiens), sequence (P27448 whole entry, looked up): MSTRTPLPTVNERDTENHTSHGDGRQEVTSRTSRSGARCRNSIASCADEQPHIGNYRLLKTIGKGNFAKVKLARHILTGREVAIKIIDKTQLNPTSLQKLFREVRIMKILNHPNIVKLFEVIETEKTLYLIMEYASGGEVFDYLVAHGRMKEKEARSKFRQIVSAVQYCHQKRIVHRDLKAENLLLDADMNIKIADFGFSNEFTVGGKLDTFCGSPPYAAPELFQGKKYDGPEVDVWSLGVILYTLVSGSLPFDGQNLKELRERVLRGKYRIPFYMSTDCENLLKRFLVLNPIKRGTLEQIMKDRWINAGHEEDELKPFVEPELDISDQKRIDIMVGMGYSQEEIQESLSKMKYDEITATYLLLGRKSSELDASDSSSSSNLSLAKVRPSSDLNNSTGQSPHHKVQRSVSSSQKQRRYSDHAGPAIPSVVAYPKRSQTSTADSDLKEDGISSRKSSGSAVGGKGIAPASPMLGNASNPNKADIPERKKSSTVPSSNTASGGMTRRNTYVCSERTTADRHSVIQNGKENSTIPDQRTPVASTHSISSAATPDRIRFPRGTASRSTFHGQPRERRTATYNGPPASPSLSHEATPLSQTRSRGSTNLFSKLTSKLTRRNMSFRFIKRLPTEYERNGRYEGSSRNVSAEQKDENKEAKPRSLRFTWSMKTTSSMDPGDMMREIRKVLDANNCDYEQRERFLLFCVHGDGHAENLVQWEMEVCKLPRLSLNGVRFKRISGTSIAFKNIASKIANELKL
# Calcium/calmodulin-dependent protein kinase type II subunit delta (Homo sapiens), sequence (Q13557 whole entry): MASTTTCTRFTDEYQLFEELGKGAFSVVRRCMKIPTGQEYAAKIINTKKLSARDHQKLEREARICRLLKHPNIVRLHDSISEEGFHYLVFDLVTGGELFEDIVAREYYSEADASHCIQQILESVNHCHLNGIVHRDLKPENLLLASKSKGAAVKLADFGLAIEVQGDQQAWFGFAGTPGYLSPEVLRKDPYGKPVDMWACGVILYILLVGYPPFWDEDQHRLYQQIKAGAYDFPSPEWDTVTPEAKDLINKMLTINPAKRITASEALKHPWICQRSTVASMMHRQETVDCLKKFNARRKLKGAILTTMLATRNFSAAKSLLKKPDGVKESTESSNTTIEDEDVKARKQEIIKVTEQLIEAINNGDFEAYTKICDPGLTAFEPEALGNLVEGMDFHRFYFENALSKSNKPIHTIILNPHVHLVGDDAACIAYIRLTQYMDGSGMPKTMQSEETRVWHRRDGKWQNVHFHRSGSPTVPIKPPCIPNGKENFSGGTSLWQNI
# Serine/threonine-protein kinase 38-like (Homo sapiens), sequence (Q9Y2H1 2-464 limits assumed): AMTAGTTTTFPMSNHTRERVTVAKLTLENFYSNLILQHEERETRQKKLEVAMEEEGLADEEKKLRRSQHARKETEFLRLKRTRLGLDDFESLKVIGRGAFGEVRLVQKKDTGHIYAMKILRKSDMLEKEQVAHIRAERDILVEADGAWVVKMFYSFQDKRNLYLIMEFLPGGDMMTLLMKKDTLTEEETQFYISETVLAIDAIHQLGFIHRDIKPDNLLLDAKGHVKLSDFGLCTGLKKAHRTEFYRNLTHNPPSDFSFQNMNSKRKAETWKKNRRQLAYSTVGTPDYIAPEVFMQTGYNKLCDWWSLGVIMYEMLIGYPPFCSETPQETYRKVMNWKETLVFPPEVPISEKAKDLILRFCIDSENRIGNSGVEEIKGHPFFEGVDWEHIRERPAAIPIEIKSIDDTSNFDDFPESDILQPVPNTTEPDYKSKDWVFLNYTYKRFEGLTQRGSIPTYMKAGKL
# Protein-tyrosine kinase 6, sequence (Q13882 whole entry, looked up): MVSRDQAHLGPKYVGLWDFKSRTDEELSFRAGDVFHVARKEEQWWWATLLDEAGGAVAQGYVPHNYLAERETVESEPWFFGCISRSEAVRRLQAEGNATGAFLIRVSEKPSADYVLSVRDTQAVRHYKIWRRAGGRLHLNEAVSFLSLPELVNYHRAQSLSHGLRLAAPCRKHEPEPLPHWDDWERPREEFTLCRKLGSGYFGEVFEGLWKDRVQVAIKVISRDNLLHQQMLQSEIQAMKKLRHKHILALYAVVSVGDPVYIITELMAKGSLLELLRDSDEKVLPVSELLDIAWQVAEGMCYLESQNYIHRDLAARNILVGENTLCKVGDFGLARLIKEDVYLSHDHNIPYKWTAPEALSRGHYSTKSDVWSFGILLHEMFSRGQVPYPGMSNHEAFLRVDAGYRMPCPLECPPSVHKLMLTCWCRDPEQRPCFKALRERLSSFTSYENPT
# Mitogen-activated protein kinase kinase kinase kinase 1 (Homo sapiens), sequence (Q92918 whole entry, looked up): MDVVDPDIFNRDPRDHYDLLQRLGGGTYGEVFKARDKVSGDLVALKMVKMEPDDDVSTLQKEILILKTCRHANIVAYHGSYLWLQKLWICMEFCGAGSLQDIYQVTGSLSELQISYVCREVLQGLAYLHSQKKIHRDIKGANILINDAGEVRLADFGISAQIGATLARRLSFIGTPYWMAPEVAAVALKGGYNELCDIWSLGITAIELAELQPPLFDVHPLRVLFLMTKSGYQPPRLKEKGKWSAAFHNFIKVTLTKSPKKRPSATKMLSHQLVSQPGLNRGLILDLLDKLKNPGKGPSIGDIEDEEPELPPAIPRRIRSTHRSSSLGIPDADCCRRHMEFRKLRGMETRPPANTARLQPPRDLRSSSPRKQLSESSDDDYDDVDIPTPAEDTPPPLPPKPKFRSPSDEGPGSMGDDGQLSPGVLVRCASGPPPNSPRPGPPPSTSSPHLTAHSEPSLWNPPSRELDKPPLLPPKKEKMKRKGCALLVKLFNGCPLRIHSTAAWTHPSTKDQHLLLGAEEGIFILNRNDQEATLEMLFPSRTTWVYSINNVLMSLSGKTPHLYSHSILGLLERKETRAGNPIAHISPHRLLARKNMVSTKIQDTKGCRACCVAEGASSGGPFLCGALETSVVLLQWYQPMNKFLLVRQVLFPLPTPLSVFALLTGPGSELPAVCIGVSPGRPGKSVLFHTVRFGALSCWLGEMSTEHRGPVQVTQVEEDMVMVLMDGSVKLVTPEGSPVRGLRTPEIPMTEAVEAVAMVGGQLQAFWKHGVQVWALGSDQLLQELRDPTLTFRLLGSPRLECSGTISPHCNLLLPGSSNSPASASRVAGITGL
# Tyrosine-protein kinase Yes (Homo sapiens), sequence (P07947 2-543 limits assumed): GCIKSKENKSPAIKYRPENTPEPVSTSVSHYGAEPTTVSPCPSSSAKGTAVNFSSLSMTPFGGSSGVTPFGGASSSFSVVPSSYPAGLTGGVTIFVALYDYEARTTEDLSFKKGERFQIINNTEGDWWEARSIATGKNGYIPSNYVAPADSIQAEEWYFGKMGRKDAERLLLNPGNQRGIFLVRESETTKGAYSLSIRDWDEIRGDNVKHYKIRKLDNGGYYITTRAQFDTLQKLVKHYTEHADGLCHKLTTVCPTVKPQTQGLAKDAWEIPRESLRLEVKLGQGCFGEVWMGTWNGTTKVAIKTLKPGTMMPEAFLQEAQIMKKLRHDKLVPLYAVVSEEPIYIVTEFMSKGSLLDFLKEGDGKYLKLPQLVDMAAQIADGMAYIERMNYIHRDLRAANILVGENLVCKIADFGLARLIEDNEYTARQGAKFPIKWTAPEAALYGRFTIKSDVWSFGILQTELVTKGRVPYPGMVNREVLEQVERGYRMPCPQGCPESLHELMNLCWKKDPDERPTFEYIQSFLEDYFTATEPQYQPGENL
# Phosphatidylinositol 4-phosphate 5-kinase type-1 alpha (Homo sapiens), sequence (Q99755 whole entry): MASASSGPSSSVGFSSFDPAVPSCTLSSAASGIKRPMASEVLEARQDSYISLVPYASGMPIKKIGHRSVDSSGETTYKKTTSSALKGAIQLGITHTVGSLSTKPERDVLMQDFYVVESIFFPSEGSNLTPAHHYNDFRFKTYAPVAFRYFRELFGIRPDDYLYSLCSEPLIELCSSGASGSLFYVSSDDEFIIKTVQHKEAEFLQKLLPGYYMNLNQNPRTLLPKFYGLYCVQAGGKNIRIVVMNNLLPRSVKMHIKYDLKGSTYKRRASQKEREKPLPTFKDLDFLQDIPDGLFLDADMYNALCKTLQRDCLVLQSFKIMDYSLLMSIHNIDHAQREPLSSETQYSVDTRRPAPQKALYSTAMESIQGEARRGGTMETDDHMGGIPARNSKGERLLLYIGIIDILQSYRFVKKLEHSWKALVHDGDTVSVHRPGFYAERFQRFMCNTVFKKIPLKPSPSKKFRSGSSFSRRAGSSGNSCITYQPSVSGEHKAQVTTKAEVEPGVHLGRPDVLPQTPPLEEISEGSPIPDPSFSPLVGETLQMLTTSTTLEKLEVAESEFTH
# Serine/threonine-protein kinase SBK1 (Homo sapiens), sequence (Q52WX2 whole entry): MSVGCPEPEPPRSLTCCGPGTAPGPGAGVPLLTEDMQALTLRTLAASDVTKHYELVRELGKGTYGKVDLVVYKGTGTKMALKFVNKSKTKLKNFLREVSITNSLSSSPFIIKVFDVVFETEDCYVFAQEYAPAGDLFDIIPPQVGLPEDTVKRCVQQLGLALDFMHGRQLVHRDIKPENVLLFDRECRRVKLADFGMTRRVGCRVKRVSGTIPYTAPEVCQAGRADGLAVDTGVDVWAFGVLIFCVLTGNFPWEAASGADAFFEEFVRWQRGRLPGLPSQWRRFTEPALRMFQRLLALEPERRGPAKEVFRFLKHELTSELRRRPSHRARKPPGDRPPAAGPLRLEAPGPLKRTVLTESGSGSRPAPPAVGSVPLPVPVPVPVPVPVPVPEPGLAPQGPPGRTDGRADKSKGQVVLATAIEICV
compound,measurement,setting,value
COc1cc(Nc2nc(C)cc(-c3cnn4nc(OC)ccc34)n2)cc(C(F)(F)F)c1,% of control,[1],93%
same,% of control,[2],77%
O=C(NOC[C@H](O)CO)c1ccc(F)c(F)c1Nc1ccc(I)cc1F,% of control,[3],78%
CCN(CC)CCCCNc1ncc2cc(-c3cc(OC)cc(OC)c3)c(NC(=O)NC(C)(C)C)nc2n1,% of control,[4],100%
CN(C(=O)c1cnn2cccnc12)c1cc2c(cc1N1CCOCC1)C(=O)N(C[C@@H](F)C(C)(C)O)C2,dTM,[5],0 K
CC[C@@H]1[C@H](F)C(=O)N[C@@H]1COc1nccc2cc(C(N)=O)c(OC)cc12 [ZIMLOVISERTIB],% of inhibition,[6],2.3%
same,% of inhibition,[7],24.9%
CCC(=O)N1CCN(c2ccc(-n3c(=O)ccc4cnc5ccc(-c6cnc7ccccc7c6)cc5c43)cc2C(F)(F)F)CC1,% of control,[8],97%
COCCN1CCC(c2cc(CN(C)C(=O)c3cccc(Oc4ccccc4)c3)ccn2)CC1,% activity,[9]; at 1 µM,> 95%
same,% activity,[9]; at 10 µM,> 90%
Cc1cc([C@@H](C)Nc2ccccc2C(=O)O)c2nc(N3CCOCC3)cc(=O)n2c1 [AZD-6482],% of control,[10],100%
N#Cc1cccc(-c2c[nH]c3ncnc(N4CCOCC4)c23)c1,% of inhibition,[11],6%
same,% of inhibition,[12],20%
Cc1cc(F)c(C(=O)Nc2cccc(-c3nncn3C(C)C)n2)cc1-n1cnc(C2CC2)c1,% of control,[13],93%
CNC(=O)Nc1ccc(-c2nc(N3CC4CCC(C3)O4)c3cnn(C4CCC5(CC4)OCCO5)c3n2)cc1,% of control,[14],91%
Cn1cc(-n2cnc3c(NCc4nc5cc(Cl)c(Cl)cc5[nH]4)nc(N4CCOCC4)nc32)cn1,% of control,[15],0.787%
same,% of control,[16],6.33%
